# Columns and labels:
# H2405 cells = test: H2405 Cell Proliferation Assay (2); format: cell-based; settings: Homo sapiens, NCI-H2405
# Protocol: H2405 Cell Proliferation Assay (2)
# (§1) H2405 cells (catalog #CRL-5994) are obtained from the American Type Culture Collect (ATTC, Manassas, VA). Briefly, cells were grown in RPMI 1640 supplemented with 5% characterized fetal bovine serum (Invitrogen, Carlsbad, CA) and 1% Penicillin/Streptomycin/L-Glutamine at 37° C., 5% CO2, and 95% humidity. Cells are expanded until reaching 70-95% confluency at which point they are sub-cultured or harvested for assay use. A serial dilution of test compound is dispensed into a 384-well black clear bottom plate in triplicate. Seven hundred fifty cells are added per well in 50 μL complete growth medium in the 384-well plate. Plates are incubated for 67-72 h at 37° C., 5% CO2, and 95% humidity. At the end of the incubation, 10 μL of a 440 μM solution of resazurin (Sigma, St. Louis, MO) in PBS is added to each well of the plate and plates are incubated for an additional 5-6 h at 37° C., 5% CO2, and 95% humidity. Plates are read on a Synergy2 or equivalent reader (Biotek, Winooski VT) using an excitation of 540 nm and an emission of 600 nm. Data is analyzed using Prism software (GraphPad, San Diego, CA) to calculate IC50 values
# Miapaca-2 cells = test: MiaPaca-2 Cell Proliferation Assay (2); format: cell-based; settings: Homo sapiens, MIA PaCa-2, single agent
# Protocol: MiaPaca-2 Cell Proliferation Assay (2)
# as §1, with “Miapaca-2 cells” for “H2405 cells”, “(catalog #CRL-1420)” for “(catalog #CRL-5994)”, “in DMEM” for “in RPMI 1640”, “with 10%” for “with 5%”, “Carlsbad, CA), 2.5% New Zealand sourced horse serum” for “Carlsbad, CA)”, “IC50 values.” for “IC50 values”
Structure (SMILES),IC50 (H2405 cells) [µM],IC50 (Miapaca-2 cells) [µM]
CNC(=O)c1cc(-c2cc(-c3cc(NC(=O)c4ccnc(C5CC5)c4)cnc3C)ccn2)ccn1 [Example 462],0.5 to 1,–
CNC(=O)c1cc(-c2cc(-c3cc(NC(=O)c4ccnc(C(C)C)c4)cnc3C)ccn2)ccn1 [Example 465],0.1 to 0.5,–
Cc1ncc(NC(=O)c2ccnc(C(C)(F)F)c2)cc1-c1ccnc(-c2ccnc(NC(=O)C3CC3)c2)c1 [Example 466],0.1 to 0.5,–
CNC(=O)c1cc(-c2cc(-c3cc(NC(=O)c4ccnc(C(C)(C)F)c4)ccc3C)c(F)cn2)ccn1 [Example 469],0.1 to 0.5,1 to 10
CNC(=O)c1cc(-c2cc(-c3cc(NC(=O)c4ccnc(C(C)(C)F)c4)ccc3C(F)(F)F)ccn2)ccn1 [Example 471],1 to 10,–
CNC(=O)c1cc(-c2cc(-c3cc(NC(=O)c4ccnc(C(C)(C)F)c4)ccc3C)c(C)cn2)ccn1 [Example 472],0.1 to 0.5,–
CNC(=O)c1cc(-c2cc(-c3cc(NC(=O)c4ccnc(C(C)(C)F)c4)ccc3C)cnn2)ccn1 [Example 473],0.1 to 0.5,–
CNC(=O)c1cc(-c2cc(-c3cc(F)cc(NC(=O)c4ccnc(C(C)(C)F)c4)c3F)ccn2)ccn1 [Example 475],1 to 10,–
CNC(=O)c1cc(-c2cc(-c3cc(NC(=O)c4cnnc(C(F)(F)F)c4)ccc3C)ccn2)ccn1 [Example 477],1 to 10,–
CNC(=O)c1cc(-c2cc(-c3cc(NC(=O)c4ccnc(C(C)(C)F)c4)ccc3F)ccn2)ccn1 [Example 479],0.1 to 0.5,1 to 10
CNC(=O)c1cc(-c2cc(-c3cc(NC(=O)c4ccnc(C(C)(C)F)c4)cc(F)c3C)ccn2)ccn1 [Example 480],0.1 to 0.5,1 to 10
CNC(=O)c1cc(-c2cc(-c3cc(NC(=O)c4ccnc(C(C)(C)F)c4)ccn3)ccn2)ccn1 [Example 481],1 to 10,–
CNC(=O)c1cc(-c2cc(-c3cc(NC(=O)c4ccnc(C(C)(C)F)c4)c(F)cc3F)ccn2)ccn1 [Example 482],0.1 to 0.5,1 to 10
Cc1cc(-c2cc(NC(=O)c3ccnc(C(C)(C)F)c3)ccc2C)cc(-c2ccnc(C#N)c2)n1 [Example 483],1 to 10,–
Cc1cc(-c2cc(NC(=O)c3ccnc(C(C)(C)F)c3)ccc2C)cc(-c2ccnc(C(N)=O)c2)n1 [Example 484],0.1 to 0.5,1 to 10

# Further lines, results first:
IC50 (H2405 cells) [µM],IC50 (Miapaca-2 cells) [µM],Structure (SMILES)
0.1 to 0.5,1 to 10,CNC(=O)c1cc(-c2cncc(-c3cc(NC(=O)c4ccnc(C(C)(F)F)c4)ccc3C)c2)ncn1 [Example 439]
0.1 to 0.5,1 to 10,CNC(=O)c1cc(-c2cncc(-c3cc(NC(=O)c4ccnc(C(C)(F)F)c4)ccc3C)c2)ccn1 [Example 440]
≤ 0.1,1 to 10,CNC(=O)c1cc(-c2cc(-c3cc(NC(=O)c4ccnc(C(C)(F)F)c4)ccc3C)ccn2)ccn1 [Example 441]
≤ 0.1,0.5 to 1,CNC(=O)c1cc(-c2cncc(-c3cc(NC(=O)c4ccnc(C(C)(C)C#N)c4)ccc3C)c2)ccn1 [Example 442]
≤ 0.1,0.5 to 1,CNC(=O)c1cc(-c2cc(-c3cc(NC(=O)c4ccnc(C(C)C)c4)ccc3C)ccn2)ccn1 [Example 443]
≤ 0.1,1 to 10,CNC(=O)c1cc(-c2cncc(-c3cc(NC(=O)c4ccnc(C(C)C)c4)ccc3C)c2)ccn1 [Example 445]
0.1 to 0.5,1 to 10,CNC(=O)c1cc(-c2cncc(-c3cc(NC(=O)c4ccnc(C(C)C)c4)ccc3C)c2)ncn1 [Example 446]
≤ 0.1,0.5 to 1,Cc1ccc(NC(=O)c2ccnc(C(C)C)c2)cc1-c1ccnc(-c2ccnc(NC(=O)C3CC3)c2)c1 [Example 467]
≤ 0.1,0.5 to 1,Cc1ncc(NC(=O)c2ccnc(C(C)C)c2)cc1-c1ccnc(-c2ccnc(NC(=O)C3CC3)c2)c1 [Example 468]
≤ 0.1,1 to 10,CNC(=O)c1cc(-c2cc(-c3cc(NC(=O)c4ccnc(C(C)(C)F)c4)ccc3C)cc(C)n2)ccn1 [Example 470]
≤ 0.1,–,CNC(=O)c1cc(-c2cc(-c3cc(NC(=O)c4ccnc(C(C)(C)F)c4)ccc3C)ncn2)ccn1 [Example 474]
≤ 0.1,1 to 10,Cc1ccc(NC(=O)c2ccnc(C(C)(C)F)c2)cc1-c1ccnc(-c2ccnc(C(N)=O)c2)c1 [Example 476]
≤ 0.1,–,CNC(=O)c1cc(-c2cc(-c3cc(NC(=O)c4ccnc(C(C)(C)F)c4)cc(F)c3F)ccn2)ccn1 [Example 478]

# Source: patent US12319655B2, “RAF kinase inhibitors and methods of use thereof” (Deciphera Pharmaceuticals, LLC, priority 2021, dated 2025)
